According to patent US20170311603A1 (priority 2014, published 2017):

Columns and labels:
VvPR1 = experiment: Induction of plant defense gene VvPR1 in grapevine calli, qRT-PCR (Example 5); assay type: cell-based, V. vinifera L. cv. Chardonnay; conditions: 10 mM in MPM1 medium, 4 days of culture; overexpressed when induction ratio ≧4
VvEDS1 = experiment: Induction of plant defense gene VvEDS1 in grapevine calli, qRT-PCR (Example 5); assay type: cell-based, V. vinifera L. cv. Chardonnay; conditions: 10 mM in MPM1 medium, 4 days of culture; overexpressed when induction ratio ≧4

Row | SMILES | expression of VvPR1 gene (VvPR1) | expression of VvEDS1 gene (VvEDS1)
1 | O=C1[O][Bi]([OH])[O]c2ccccc21 [bismuth subsalicylate] | overexpress | overexpress
2 | O=C(O)c1ccccc1O [salicylic acid] | overexpress | overexpress
